Source: patent publication US10175228B2, “Method of using transmembrane channel-like protein 6 (TMC6) protein to identify substances affecting salty taste” (priority 2016, dated 2019)

What was measured:
[1] = system: Macaca mulatta TMC6 protein; experiment: Calcium imaging of CHO-K1 cells expressing the Macaca mulatta TMC6 gene; assay type: cell-based; conditions: stimulation with high-concentration NaCl solution for 60 sec, 28 cells
Text: CHO-K1 cells were transfected with Macaca mulatta TMC6-2A-YC260TM in pcDNA3.1(−), Pongo abelii TMC6-2A-YC260TM in pcDNA3.1(−), Mouse-Aotus nancymaae chimera TMC6 2A-YC260TM in pcDNA3.1(−), or YC2.60-pcDNA, to prepare TMC6-expressing cells (cells expressing the Macaca mulatta TMC6 gene, the Pongo abelii TMC6 gene, or the mouse/Aotus nancymaae chimeric TMC6 gene, in combination with the YC2.60 gene) and control cells (cells expressing the YC2.60 gene). The prepared cells were stimulated, and activation of the cells was measured. The procedure was as follows.
First, a plurality of sterile cover glasses (18×32 mm, Matsunami Glass) were placed at the bottom of a culture dish having a diameter of 100 mm so as not to be overlapped to each other. CHO-K1 cells (ATCC) were inoculated thereto while adjusting the number of the cells to obtain 60% confluence, and cultured for 24 hr. Then, medium exchange was carried out. As the medium, 12 mL of Ham's F-12K (Kaighn's) (Life Technologies) containing 10% fetal bovine serum (Life Technologies) was used. […]
Change of the intracellular calcium concentration was measured and analyzed with analysis software equipped with FV1200. An average YFP/CFP value of all the cell of which the YFP/CFP value was changed by stimulation with the ATP stimulation solution was calculated at each measurement. […]

[2] = system: control cells (CHO-K1 cells expressing YC2.60 gene); experiment: Calcium imaging of control cells (CHO-K1 cells expressing YC2.60 gene only); assay type: cell-based, Chinese hamster; conditions: control cells without TMC6, stimulation with high-concentration NaCl solution
Protocol: CHO-K1 cells were transfected with TMC6-pcDNA3.1 or pcDNA3.1 in combination with YC2.60-pcDNA, to prepare TMC6-expressing cells (cells expressing the mouse TMC6 gene and the YC2.60 gene) and control cells (cells expressing the YC2.60 gene). The prepared cells were stimulated, and activation of the cells was measured. The procedure was as follows.
That is, first, CHO-K1 cells (ATCC) were inoculated into a culture dish having a diameter of 60 mm while adjusting the number of the cells to obtain 60% confluence, and cultured for 8 hr. As the medium, 5 mL of Ham's F-12K (Kaighn's) (Life Technologies) containing 10% fetal bovine serum (Life Technologies) was used. A 15 μL aliquot of FuGENE 6 (Promega) was added to 235 μL of Opti-MEM (Thermo Fisher Scientific), and incubated for 5 min at a room temperature. Then, 0.625 μg of TMC6-pcDNA3.1 and 2.5 μg of YC2.60-pcDNA were further added thereto, and incubated for 15 min at a room temperature. Then, the whole of the resultant mixture was dropped into the culture broth of the CHO-K1 cells, and the culture broth was mildly stirred. Then, the cells were further cultured for 18 hr under a condition of 5% CO2 at 37° C., to obtain the TMC6-expressing cells. Similarly, the control cells were obtained through transfection using pcDNA3.1 instead of TMC6-pcDNA3.1.
After the cultivation, the culture broth was removed. […]

SMILES: [Cl-].[Na+] [NaCl, sodium chloride]
- change of average YFP/CFP value (intracellular calcium concentration) [1]: increase
- change of YFP/CFP value (intracellular calcium concentration) [2]: not observed an increase
